Assay results reported in publication PMC10504751, “Chalcone/1,3,4-Oxadiazole/Benzimidazole hybrids as novel anti-proliferative agents inducing apoptosis and inhibiting EGFR & BRAFV^600E” (BMC Chemistry, 2023).
Where “and” joins values, the source holds several entries; their conditions need not be identical. Equal values may be shown once. Read-outs that look alike come from different tables or passages of the source.

How the values were obtained:
BT-549 = experiment: NCI one-dose SRB anti-proliferative screen; format: cell-based; conditions: Homo sapiens, read-out: Cell growth inhibition %
Procedure, shortened: (§1)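 Compounds were tested at a single 10 µM concentration within a 60-cell-line panel covering nine tumour subpanels. Growth was read colorimetrically by sulforhodamine B staining.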

CAKI-1 = experiment: NCI one-dose SRB anti-proliferative screen; format: cell-based; conditions: Homo sapiens, read-out: Cell growth inhibition %
Procedure, shortened: as §1

COLO 205 = experiment: NCI one-dose SRB anti-proliferative screen; format: cell-based; conditions: Homo sapiens, read-out: Cell growth inhibition %
Procedure, shortened: as §1

HOP-62 = experiment: NCI one-dose SRB anti-proliferative screen; format: cell-based; conditions: Homo sapiens, read-out: Cell growth inhibition %
Procedure, shortened: as §1

HOP-92 = experiment: NCI one-dose SRB anti-proliferative screen; format: cell-based; conditions: Homo sapiens, read-out: Cell growth inhibition %
Procedure, shortened: as §1

M14 = experiment: NCI one-dose SRB anti-proliferative screen; format: cell-based; conditions: Homo sapiens, read-out: Cell growth inhibition %
Procedure, shortened: as §1

MALME-3M = experiment: NCI one-dose SRB anti-proliferative screen; format: cell-based; conditions: Homo sapiens, read-out: Cell growth inhibition %
Procedure, shortened: as §1

MDA-MB-231/ATCC = experiment: NCI one-dose SRB anti-proliferative screen; format: cell-based; conditions: Homo sapiens, read-out: Cell growth inhibition %
Procedure, shortened: as §1

MDA-MB-435 = experiment: NCI one-dose SRB anti-proliferative screen; format: cell-based; conditions: Homo sapiens, read-out: Cell growth inhibition %
Procedure, shortened: as §1

NCI-H460 = experiment: NCI one-dose SRB anti-proliferative screen; format: cell-based; conditions: Homo sapiens, read-out: Cell growth inhibition %
Procedure, shortened: as §1

NCI/ADR-RES = experiment: NCI one-dose SRB anti-proliferative screen; format: cell-based; conditions: Homo sapiens, read-out: Cell growth inhibition %
Procedure, shortened: as §1

RPMI-8226 = experiment: NCI one-dose SRB anti-proliferative screen; format: cell-based; conditions: Homo sapiens, read-out: Cell growth inhibition %
Procedure, shortened: as §1

SF-295 = experiment: NCI one-dose SRB anti-proliferative screen; format: cell-based; conditions: Homo sapiens, read-out: Cell growth inhibition %
Procedure, shortened: as §1

SK-MEL-28 = experiment: NCI one-dose SRB anti-proliferative screen; format: cell-based; conditions: Homo sapiens, read-out: Cell growth inhibition %
Procedure, shortened: as §1

SK-MEL-2 = experiment: NCI one-dose SRB anti-proliferative screen; format: cell-based; conditions: Homo sapiens, read-out: Cell growth inhibition %
Procedure, shortened: as §1

SK-MEL-5 = experiment: NCI one-dose SRB anti-proliferative screen; format: cell-based; conditions: Homo sapiens, read-out: Cell growth inhibition %
Procedure, shortened: as §1

SN12C = experiment: NCI one-dose SRB anti-proliferative screen; format: cell-based; conditions: Homo sapiens, read-out: Cell growth inhibition %
Procedure, shortened: as §1

SNB-19 = experiment: NCI one-dose SRB anti-proliferative screen; format: cell-based; conditions: Homo sapiens, read-out: Cell growth inhibition %
Procedure, shortened: as §1

SNB-75 = experiment: NCI one-dose SRB anti-proliferative screen; format: cell-based; conditions: Homo sapiens, read-out: Cell growth inhibition %
Procedure, shortened: as §1

SR = experiment: NCI one-dose SRB anti-proliferative screen; format: cell-based; conditions: Homo sapiens, read-out: Cell growth inhibition %
Procedure, shortened: as §1

UO-31 = experiment: NCI one-dose SRB anti-proliferative screen; format: cell-based; conditions: Homo sapiens, read-out: Cell growth inhibition %
Procedure, shortened: as §1

[1] = system: melanoma LOX-IMVI cell line; experiment: Propidium iodide anti-proliferative assay in LOX-IMVI; format: cell-based, human; conditions: for IC50: Homo sapiens, melanoma LOX-IMVI, 48 h incubation; for fold more selective towards LOX-IMVI cell line: LOX-IMVI vs MCF-10 A
Protocol: Consequently, the half-maximal inhibitory concentration (IC50) of these compounds was determined in LOX-IMVI cell line using propidium iodide (PI)^31, 32 with Staurosporine (broad spectrum protein kinase inhibitor) as a reference.
Cells whose cell membranes are damaged or have changed permeability are counted as dead ones. […] The medium was removed; the compounds were added to the plates at 10 µM concentrations (in 0.1% DMSO) in triplicates, followed by incubation for 48 h. DMSO (0.1%) was used as control. After incubation, medium was removed followed by the addition of PI (25 µl, 50µg/mL in water/medium) to each well of the plates. At -80 °C, the plates were allowed to freeze for 24 h, followed by thawing at 25 °C. A fluorometer (Polar-Star BMG Tech) was used to record the readings at excitation and emission wavelengths of 530 and 620 nm for each well. The percentage cytotoxicity of compounds was calculated using the following formula:
Where ATC= Absorbance of treated cells and AC= Absorbance of control.

EGFR = molecular target: T1, EGFR (Homo sapiens, UniProt P00533); experiment: EGFR-TK inhibitory assay; format: biochemical; conditions: read-out: EGFR Inhibition IC50 ± SEM
T1 construct: EGFR cytoplasmic domain (EGFR-CD, amino acids 645–1186); His6 (N); made in house; host or cells: Sf-9 insect cells (baculovirus; pBlueBacHis2B / pFASTBacHTc)
T1 sequence (P00533 669-1210): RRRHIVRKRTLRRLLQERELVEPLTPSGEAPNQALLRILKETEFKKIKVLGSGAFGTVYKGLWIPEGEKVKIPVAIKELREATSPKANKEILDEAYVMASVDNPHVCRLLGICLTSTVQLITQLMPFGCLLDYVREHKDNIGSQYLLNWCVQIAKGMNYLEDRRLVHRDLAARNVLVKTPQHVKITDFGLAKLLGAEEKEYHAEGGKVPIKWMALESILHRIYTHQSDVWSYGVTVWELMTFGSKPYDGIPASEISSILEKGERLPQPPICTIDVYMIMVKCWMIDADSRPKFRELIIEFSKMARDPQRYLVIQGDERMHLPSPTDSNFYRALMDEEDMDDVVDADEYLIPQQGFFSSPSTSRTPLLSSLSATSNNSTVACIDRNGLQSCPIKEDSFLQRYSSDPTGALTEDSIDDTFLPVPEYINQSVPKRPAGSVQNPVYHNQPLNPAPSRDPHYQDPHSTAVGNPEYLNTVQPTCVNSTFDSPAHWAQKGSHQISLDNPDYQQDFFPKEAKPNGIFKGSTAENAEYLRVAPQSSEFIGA

[2] = system: Caspase-8 in MCF-7 breast cancer cells; experiment: Caspase-8 assay; format: cell-based, human
[3] = system: Caspase-9 in MCF-7 breast cancer cells; experiment: Caspase-9 assay; format: cell-based, human
BRAF^V600E = experiment: biochemical
Sequence of BRAF^V600E (P28028 whole entry V585E): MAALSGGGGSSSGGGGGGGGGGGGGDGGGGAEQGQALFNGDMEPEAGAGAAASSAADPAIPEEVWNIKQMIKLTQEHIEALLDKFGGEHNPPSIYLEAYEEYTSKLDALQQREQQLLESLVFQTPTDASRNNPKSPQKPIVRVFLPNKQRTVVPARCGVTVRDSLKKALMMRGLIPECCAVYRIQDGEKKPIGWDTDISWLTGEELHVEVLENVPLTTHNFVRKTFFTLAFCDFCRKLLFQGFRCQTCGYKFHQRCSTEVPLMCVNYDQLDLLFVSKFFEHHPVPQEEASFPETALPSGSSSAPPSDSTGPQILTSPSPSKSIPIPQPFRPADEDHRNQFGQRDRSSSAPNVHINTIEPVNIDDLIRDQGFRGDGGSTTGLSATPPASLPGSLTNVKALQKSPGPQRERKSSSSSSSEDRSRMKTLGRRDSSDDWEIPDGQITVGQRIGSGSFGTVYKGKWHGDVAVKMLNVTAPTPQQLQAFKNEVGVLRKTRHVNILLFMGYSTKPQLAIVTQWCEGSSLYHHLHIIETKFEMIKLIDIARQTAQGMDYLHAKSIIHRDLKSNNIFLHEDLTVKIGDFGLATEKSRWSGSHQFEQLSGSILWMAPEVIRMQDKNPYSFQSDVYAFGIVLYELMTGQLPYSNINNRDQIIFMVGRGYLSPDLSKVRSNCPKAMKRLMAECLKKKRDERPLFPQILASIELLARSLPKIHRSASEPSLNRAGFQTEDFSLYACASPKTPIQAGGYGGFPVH
Protocol: To further denature the protein, heat (70° C) was applied for 5 min. […] 10 µL of each reaction was loaded into the precast plates and electrophoresis was allowed to proceed. After completion of electrophoresis, the front part of the precast gel plate (holding hot ATP) was cut and afterwards cast-off. The dried gel was developed using a phosphor screen.

Bcl-2 in MCF-7 = experiment: Bcl-2 inhibition assay
Protocol: All reagents were thoroughly mixed without foaming before use. The microwells were washed twice with approximately 300 µL Wash Buffer per well with the thorough aspiration of microwell contents between washes. Care was taken not to scratch the surface of the microwells. After the last wash, the wells were emptied and microwell strips were tapped on an absorbent pad or paper towel to remove excess Wash Buffer. The microwell strips were used immediately after washing or placed upside down on a wet absorbent paper for not longer than 15 min. Wells were not allowed to dry. A total of 100 µL of Sample Diluent was added in duplicate to all standard wells and the blank wells. Standard (1:2 dilution) in duplicate was prepared ranging from 32 to 0.5 ng/mL. A total of 100 µL of Sample Diluent, in duplicate, was added to the blank wells. A total of 80 µL of Sample Diluent, in duplicate, was added to the sample wells. A total of 20 µL of each sample, in duplicate, was added to the designated wells. A total of 50 µL of diluted biotin was added, conjugated to all wells, including the blank wells. It was covered with a plate cover and incubated at room temperature on a microplate shaker at 100 rpm for 2 h. The plate cover was removed and the wells were emptied. Microwell strips were washed times as described in Step 2. A total of 100 µL of diluted Streptavidin-HRP was added to all wells, including the blank wells. It was covered with a plate cover and incubated at room temperature on a microplate shaker at 100 rpm for 1 h. The plate cover was removed and the wells were emptied. Microwell strips were washed three times, as described in Step 2. A total of 100 µL of mixed TMB Substrate Solution was pipetted into all wells, including the blanks. The microwell strips were incubated at room temperature (18 ◦C to 25 ◦C) for about 15 min, on a rotator set at 100 rpm. Direct exposure to intense light was avoided. The point at which the substrate reaction is stopped was determined by the ELISA reader. Many ELISA readers record absorbance only up to 2.0 O.D. Therefore, the color development within individual microwells was watched by the person running the assay, and the substrate reaction was stopped before positive wells were no longer properly detectable. The enzyme reaction was stopped by quickly pipetting 100 µL of Stop Solution into each well, including the blank wells. It was important that the Stop Solution was spread quickly and uniformly throughout the microwells to inactivate the enzyme completely. Results were read immediately after the Stop Solution was added or within one hour if the microwell strips were stored at 2–8 ◦C in the dark. The absorbance of each microwell was read on a spectrophotometer using 450 nm as the primary wavelength.

[4] = BT-549 (Breast Cancer), NCI one dose 10 µM
[5] = CAKI-1 (Renal Cancer), NCI one dose 10 µM
[6] = COLO 205 (Colon Cancer), NCI one dose 10 µM
[7] = HOP-62 (Non-Small Cell Lung Cancer), NCI one dose 10 µM
[8] = HOP-92 (Non-Small Cell Lung Cancer), NCI one dose 10 µM
[9] = M14 (Melanoma), NCI one dose 10 µM
[10] = MALME-3M (Melanoma), NCI one dose 10 µM
[11] = MDA-MB-231/ATCC (Breast Cancer), NCI one dose 10 µM
[12] = MDA-MB-435 (Melanoma), NCI one dose 10 µM
[13] = NCI-H460 (Non-Small Cell Lung Cancer), NCI one dose 10 µM
[14] = NCI/ADR-RES (Ovarian Cancer), NCI one dose 10 µM
[15] = RPMI-8226 (Leukemia), NCI one dose 10 µM
[16] = SF-295 (CNS Cancer), NCI one dose 10 µM
[17] = SK-MEL-28 (Melanoma), NCI one dose 10 µM
[18] = SK-MEL-2 (Melanoma), NCI one dose 10 µM
[19] = SK-MEL-5 (Melanoma), NCI one dose 10 µM
[20] = SN 12C (Renal Cancer), NCI one dose 10 µM
[21] = SNB-19 (CNS Cancer), NCI one dose 10 µM
[22] = SNB-75 (CNS Cancer), NCI one dose 10 µM
[23] = SR (Leukemia), NCI one dose 10 µM
[24] = UO-31 (Renal Cancer), NCI one dose 10 µM

COc1ccc(-c2nc3cc(-c4nnc(SCC(=O)Nc5ccc(C(=O)/C=C/c6ccc(Cl)cc6)cc5)o4)ccc3[nH]2)cc1 [Compound 7l, 2-{5-[2-(4-Methoxyphenyl)-1 H-benzo[d]imidazol-5-yl]-1,3,4-oxadiazol-2-ylthio}-N-{4-[(E)-3-(4-chlorophenyl)acryloyl]phenyl}acetamide]
inhibition at 10 µM (BT-549; BT-549, Breast cancer, NCI one dose): 1.84%
inhibition at 10 µM (CAKI-1; CAKI-1, Renal cancer, NCI one dose): 2.8%
inhibition at 10 µM (COLO 205; COLO 205, Colon cancer, NCI one dose): 0%
inhibition at 10 µM (HOP-62; HOP-62, Non-Small Cell Lung Cancer, NCI one dose): 0.53%
inhibition at 10 µM (HOP-92; HOP-92, Non-Small Cell Lung Cancer, NCI one dose): 5.04%
inhibition at 10 µM (M14; M14, Melanoma, NCI one dose): 0%
inhibition at 10 µM (MALME-3M; MALME-3M, Melanoma, NCI one dose): 3.9%
inhibition at 10 µM (MDA-MB-231/ATCC; MDA-MB-231/ATCC, Breast cancer, NCI one dose): 5.19%
inhibition at 10 µM (MDA-MB-435; MDA-MB-435, Melanoma, NCI one dose): 0.7%
inhibition at 10 µM (NCI-H460; NCI-H460, Non-Small Cell Lung Cancer, NCI one dose): 0%
inhibition at 10 µM (NCI/ADR-RES; NCI/ADR-RES, Ovarian Cancer, NCI one dose): 0%
inhibition at 10 µM (RPMI-8226; RPMI-8226, Leukemia, NCI one dose): 20.1%
inhibition at 10 µM (SF-295; SF-295, CNS Cancer, NCI one dose): 4.12%
inhibition at 10 µM (SK-MEL-28; SK-MEL-28, Melanoma, NCI one dose): 0%
inhibition at 10 µM (SK-MEL-2; SK-MEL-2, Melanoma, NCI one dose): 0%
inhibition at 10 µM (SK-MEL-5; SK-MEL-5, Melanoma, NCI one dose): 1.12%
inhibition at 10 µM (SN12C; SN 12C, Renal cancer, NCI one dose): 11.7%
inhibition at 10 µM (SNB-19; SNB-19, CNS Cancer, NCI one dose): 0%
inhibition at 10 µM (SNB-75; SNB-75, CNS Cancer, NCI one dose): 5.35%
inhibition at 10 µM (SR; SR, Leukemia, NCI one dose): 31.8%
inhibition at 10 µM (UO-31; UO-31, Renal cancer, NCI one dose): 14.7%
IC50 [1]: 800 ± 100 nM
fold more selective towards LOX-IMVI cell line [1]: 111 fold
IC50 (EGFR): 800 ± 100 nM
Caspase-8 Fold change ([2]; MCF-7, vs untreated control): 9 fold and 9.30 fold
Caspase-8 Conc ([2]; MCF-7 breast cancer cells): 1.570 ng/mL
Caspase-9 Fold change ([3]; MCF-7, vs untreated control): 16 fold and 16.00 fold
Caspase-9 Conc ([3]; MCF-7 breast cancer cells): 15.100 ng/mL
IC50 (BRAF^V600E): 1900 ± 200 nM
Bcl-2 Conc (Bcl-2 in MCF-7; MCF-7): 0.97 ng/mL and 0.975 ng/mL
Bcl-2 Fold reduction (Bcl-2 in MCF-7; MCF-7, vs untreated control): 5.2 fold

COc1ccc(-c2nc3cc(-c4nnc(SCC(=O)Nc5ccc(C(=O)/C=C/c6ccc(Cl)cc6)cc5)o4)ccc3[nH]2)cc1OC [Compound 7q, 2-{5-[2-(3,4-Dimethoxyphenyl)-1 H-benzo[d]imidazol-5-yl]-1,3,4-oxadiazol-2-ylthio}-N-{4-[(E)-3-(4-chlorophenyl)acryloyl]phenyl}acetamide]
inhibition at 10 µM (BT-549; [4]): 0%
inhibition at 10 µM (CAKI-1; [5]): 0%
inhibition at 10 µM (COLO 205; [6]): 0%
inhibition at 10 µM (HOP-62; [7]): 0%
inhibition at 10 µM (HOP-92; [8]): 0%
inhibition at 10 µM (M14; [9]): 0%
inhibition at 10 µM (MALME-3M; [10]): 4.86%
inhibition at 10 µM (MDA-MB-231/ATCC; [11]): 4.84%
inhibition at 10 µM (MDA-MB-435; [12]): 0%
inhibition at 10 µM (NCI-H460; [13]): 0%
inhibition at 10 µM (NCI/ADR-RES; [14]): 0%
inhibition at 10 µM (RPMI-8226; [15]): 24.5%
inhibition at 10 µM (SF-295; [16]): 1.96%
inhibition at 10 µM (SK-MEL-28; [17]): 0%
inhibition at 10 µM (SK-MEL-2; [18]): 0%
inhibition at 10 µM (SK-MEL-5; [19]): 2.38%
inhibition at 10 µM (SN12C; [20]): 5.1%
inhibition at 10 µM (SNB-19; [21]): 0%
inhibition at 10 µM (SNB-75; [22]): 0%
inhibition at 10 µM (SR; [23]): 27%
inhibition at 10 µM (UO-31; [24]): 13%
IC50 [1]: 2500 ± 200 nM
IC50 (EGFR): 3900 ± 300 nM
IC50 (BRAF^V600E): 4700 ± 300 nM

COc1cc(-c2nc3cc(-c4nnc(SCC(=O)Nc5ccc(C(=O)/C=C/c6ccc(Cl)cc6)cc5)o4)ccc3[nH]2)cc(OC)c1OC [Compound 7v, 2-{5-[2-(3,4,5-Trimethoxyphenyl)-1 H-benzo[d]imidazol-5-yl]-1,3,4-oxadiazol-2-ylthio}-N-{4-[(E)-3-(4-chlorophenyl)acryloyl]phenyl}acetamide]
inhibition at 10 µM (BT-549; [4]): 15.6%
inhibition at 10 µM (CAKI-1; [5]): 2.81%
inhibition at 10 µM (COLO 205; [6]): 0%
inhibition at 10 µM (HOP-62; [7]): 0%
inhibition at 10 µM (HOP-92; [8]): 17.8%
inhibition at 10 µM (M14; [9]): 0%
inhibition at 10 µM (MALME-3M; [10]): 0%
inhibition at 10 µM (MDA-MB-231/ATCC; [11]): 8.4%
inhibition at 10 µM (MDA-MB-435; [12]): 1.02%
inhibition at 10 µM (NCI-H460; [13]): 0%
inhibition at 10 µM (NCI/ADR-RES; [14]): 0%
inhibition at 10 µM (RPMI-8226; [15]): 42.8%
inhibition at 10 µM (SF-295; [16]): 2.25%
inhibition at 10 µM (SK-MEL-28; [17]): 0%
inhibition at 10 µM (SK-MEL-2; [18]): 0%
inhibition at 10 µM (SK-MEL-5; [19]): 8.57%
inhibition at 10 µM (SN12C; [20]): 9.61%
inhibition at 10 µM (SNB-19; [21]): 6.59%
inhibition at 10 µM (SNB-75; [22]): 14.7%
inhibition at 10 µM (SR; [23]): 39.6%
inhibition at 10 µM (UO-31; [24]): 16%
IC50 [1]: 900 ± 100 nM
fold more selective towards LOX-IMVI cell line [1]: 97 fold
IC50 (EGFR): 2800 ± 300 nM
IC50 (BRAF^V600E): 3100 ± 200 nM
